From publication PMC9502701 (Molecules, 2022)

Target: neuraminidase (NA) (Influenza A virus, UniProt Q6DPL2)
Format: biochemical
Conditions: for Inhibition Rate (%): 100 μg/mL standard compounds; for IC50: standard compounds

neuraminidase (NA), sequence (Q6DPL2 whole entry, looked up): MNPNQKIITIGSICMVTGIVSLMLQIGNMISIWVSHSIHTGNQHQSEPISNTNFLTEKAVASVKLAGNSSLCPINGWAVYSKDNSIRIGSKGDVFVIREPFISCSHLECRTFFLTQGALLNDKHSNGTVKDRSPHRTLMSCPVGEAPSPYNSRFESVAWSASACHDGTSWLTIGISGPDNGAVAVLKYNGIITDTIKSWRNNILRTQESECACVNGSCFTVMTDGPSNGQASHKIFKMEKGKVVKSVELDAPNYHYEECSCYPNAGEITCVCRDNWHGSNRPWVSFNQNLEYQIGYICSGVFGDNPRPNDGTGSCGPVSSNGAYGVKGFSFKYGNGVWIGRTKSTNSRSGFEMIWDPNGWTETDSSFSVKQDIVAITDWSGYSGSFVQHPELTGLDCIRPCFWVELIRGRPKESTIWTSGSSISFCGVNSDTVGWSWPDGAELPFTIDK

SMILES	Inhibition Rate (%)	IC50 [µM]
O=C(/C=C/c1ccc(O)c(O)c1)O[C@@H]1[C@H](O)C[C@@](O)(C(=O)O)C[C@H]1OC(=O)/C=C/c1ccc(O)c(O)c1 [4,5-Di-O-caffeoylquinic acid]	75.90	132
O=C(/C=C/c1ccc(O)c(O)c1)O[C@H]1[C@H](O)C[C@](O)(C(=O)O)C[C@H]1O [Cryptochlorogenic acid, cryptochlorogenic acid]	54.89	290
O=C(/C=C/c1ccc(O)c(O)c1)O[C@@H]1C[C@@](O)(C(=O)O)C[C@@H](O)[C@@H]1O [Neochlorogenic acid, neochlorogenic acid]	76.00	157
C=C[C@H]1[C@H](O[C@@H]2O[C@H](CO)[C@@H](O)[C@H](O)[C@H]2O)OC=C(C(=O)OC)[C@H]1CC(=O)O [Secoxyloganin, secoxyloganin]	37.74	–
